Target: T1, APOL1 (Homo sapiens, UniProt O14791)
T1 sequence (O14791 1-398 S342G/I384M): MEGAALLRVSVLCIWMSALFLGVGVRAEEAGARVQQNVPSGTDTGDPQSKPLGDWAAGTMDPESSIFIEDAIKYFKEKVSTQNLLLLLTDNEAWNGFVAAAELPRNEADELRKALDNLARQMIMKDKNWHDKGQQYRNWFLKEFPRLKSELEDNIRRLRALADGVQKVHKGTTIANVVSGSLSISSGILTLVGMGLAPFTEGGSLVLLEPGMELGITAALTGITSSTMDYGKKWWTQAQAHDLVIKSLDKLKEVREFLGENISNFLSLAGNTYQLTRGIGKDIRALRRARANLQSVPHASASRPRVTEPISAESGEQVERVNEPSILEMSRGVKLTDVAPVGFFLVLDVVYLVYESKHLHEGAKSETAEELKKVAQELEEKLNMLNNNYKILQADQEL
Test: MultiTox-Fluor Multiplex Cytotoxicity Assay in tet-inducible APOL1 T-REx-HEK293 cells (cell rescue, ratio of dead to live cells)
Type: cell-based
Conditions: tet-inducible transgenic APOL1 T-REx-HEK293 cell lines, 50 ng/mL tet, 24 hours; read-out: IP50 (i.e., IC50 for cell proliferation)
Procedure, shortened: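 T-REx-HEK293 cells with tet-inducible APOL1 were treated with compound (10 μM top, 10-point 3-fold dilution, duplicate) plus 50 ng/mL tetracycline for 24 h at 37° C, in DMEM with 2% tet-free FBS. MultiTox-Fluor protease signals gave a dead/live ratio, normalized to no tet (100% viability) and tet alone (0%).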

Row | SMILES | IC50 [nM]
1 | C[C@H]1C[C@@]2(CCN1Cc1cnn(C[C@@H](O)C(C)(C)O)c1)OC[C@@H](O)c1cc(C(F)(F)F)sc12 [Compound 890, (2R)-1-[4-[[(2′S,4S,7R)-4-hydroxy-2′-methyl-2-(trifluoromethyl)spiro[4,5-dihydrothieno[2,3-c]pyran-7,4′-piperidine]-1′-yl]methyl]pyrazol-1-yl]-3-methyl-butane-2,3-diol] | < 100
2 | CC(C)Cc1cc2c(s1)CCO[C@@]21CCN(Cc2cn(CCS(C)(=O)=O)nn2)[C@@H](C)C1 [Compound 514] | 100 to 500
3 | CCc1cc2c(s1)CCO[C@@]21CCN(Cc2cn(C3CN(S(=O)(=O)CCO)C3)nn2)[C@@H](C)C1 [Compound 1, 2-[3-[4-[[(2′S,4R)-2-ethyl-2′-methyl-spiro[6,7-dihydrothieno[3,2-c]pyran-4,4′-piperidine]-1′-yl]methyl]triazol-1-yl]azetidin-1-yl]sulfonylethanol] | < 100
4 | Cc1cc2c(s1)[C@]1(CCN(Cc3cnn(CCO)c3)[C@@H](C)C1)OCC2 [Compound 1027, 2-[4-[[(2′S, 7R)-2,2′-dimethylspiro[4,5-dihydrothieno[2,3-c]pyran-7,4′-piperidine]-1′-yl]methyl]pyrazol-1-yl]ethanol] | < 100
5 | CCc1cc2c(s1)CCO[C@@]21CCN(C[C@H]2C[C@@H](NC(=O)OC)C2)[C@@H](C)C1 [Compound 302, methyl N-[3-[[(2′S,4R)-2-ethyl-2′-methyl-spiro[6,7-dihydrothieno[3,2-c]pyran-4,4′-piperidine]-1′-yl]methyl]cyclobutyl]carbamate] | < 100
6 | CCc1cc2c(s1)CCO[C@@]21CCN(Cc2cn(CS(=O)(=O)CC)nn2)[C@@H](C)C1 [Compound 14, (2′S)-2-ethyl-1′-[[1-(ethylsulfonylmethyl)triazol-4-yl]methyl]-2′-methyl-spiro[6,7-dihydrothieno[3,2-c]pyran-4,4′-piperidine]] | 100 to 500
7 | C[C@H]1C[C@@]2(CCN1Cc1cnn(CCS(C)(=O)=O)c1)OCCc1sc(Cl)cc12 [Compound 518] | < 100
8 | CNC(=O)c1cccc(CN2CC[C@]3(C[C@@H]2C)OCCc2cc(Cl)sc23)c1 [Compound 652] | 100 to 500
9 | C[C@H]1C[C@@]2(CCN1Cc1cn(CCS(C)(=O)=O)nn1)OCCc1sc(Br)cc12 [Compound 522, (2′S,4R)-2-bromo-2′-methyl-1′-[[1-(2-methylsulfonylethyl)triazol-4-yl]methyl]spiro[6,7-dihydrothieno[3,2-c]pyran-4,4′-piperidine]] | < 100
10 | Cc1cncc(CN2CC[C@]3(C[C@@H]2C)OCCc2c3sc(Cl)c2CO)c1 [Compound 723] | 100 to 500
11 | CCc1cc2c(s1)CCO[C@@]21CCN(CC2CN(C(=O)c3cn[nH]c3)C2)[C@@H](C)C1 [Compound 433] | < 100
12 | COC1CO[C@@]2(CCN(Cc3cnn(CCS(C)(=O)=O)c3)[C@@H](C)C2)c2sc(Cl)cc21 (single isomer, unassigned) [Compound 843, (2′S, 7R)-2-chloro-4-methoxy-2′-methyl-1′-[[1-(2-methylsulfonylethyl)pyrazol-4-yl]methyl]spiro[4,5-dihydrothieno[2,3-c]pyran-7,4′-piperidine]] | < 100
13 | C[C@H]1C[C@@]2(CCN1Cc1cnn(CCCC(N)=O)c1)OC[C@@H](O)c1cc(C(F)(F)F)sc12 [Compound 927] | < 100
14 | Cc1cnccc1CN1CC[C@]2(C[C@@H]1C)OCCc1cc(Cl)sc12 [Compound 693] | 500 to 1000
15 | CCc1cc2c(s1)CCO[C@@]21CCN(C[C@H]2C[C@@H](NC(=O)c3cc(C)no3)C2)[C@@H](C)C1 [Compound 304] | < 100
16 | CCS(=O)(=O)N[C@H]1C[C@@H](CN2CC[C@]3(C[C@@H]2C)OCCc2cc(CC(F)F)sc23)C1 [Compound 553] | < 100
17 | C[C@H]1C[C@@]2(CCN1Cc1nccn1C)OCCc1cc(CC(F)F)sc12 [Compound 592] | 500 to 1000
18 | CCc1cc2c(s1)CCO[C@@]21CCN(C[C@H]2C[C@@H](NC(=O)C3CNC(=O)O3)C2)[C@@H](C)C1 (some centres unmarked) [Compound 361] | 100 to 500
19 | C[C@H]1C[C@@]2(CCN1C[C@@H](O)C(N)=O)OCCc1cc(CC(F)F)sc12 [Compound 610, (2R)-3-[(2′S, 7R)-2-(2,2-difluoroethyl)-2′-methyl-spiro[4,5-dihydrothieno[2,3-c]pyran-7,4′-piperidine]-1′-yl]-2-hydroxy-propanamide] | < 100
20 | CCc1cc2c(s1)CCO[C@@]21CCN(Cc2cn(CCn3cccn3)nn2)[C@@H](C)C1 [Compound 46] | 100 to 500
21 | CCc1cc2c(s1)CCO[C@@]21CCN(CC2CN(C(=O)c3cccc(CO)c3)C2)[C@@H](C)C1 [Compound 428] | < 100
22 | C[C@H]1C[C@@]2(CCN1CC(O)c1ccc(F)c(F)c1)OCCc1cc(CC(F)F)sc12 (some centres unmarked) [Compound 605] | 100 to 500
23 | CCc1cc2c(s1)CCO[C@@]21CCN(Cc2cnn(C)c2)[C@@H](C)C1 [Compound 267] | < 100
24 | Cc1nccn1-c1ccc(CN2CC[C@]3(C[C@@H]2C)OCCc2c3sc(Cl)c2CO)cc1 [Compound 717] | 100 to 500

Row | SMILES | IC50 [nM]
25 | C[C@H]1C[C@@]2(CCN1C1COCC1O)OCCc1cc(C(F)(F)F)sc12 (stereo partly drawn) [Compound 866, 4-[(2′S, 7R)-2′-methyl-2-(trifluoromethyl)spiro[4,5-dihydrothieno[2,3-c]pyran-7,4′-piperidine]-1′-yl]tetrahydrofuran-3-ol] | 100 to 500
26 | CCc1cc2c(s1)CCO[C@@]21CCN(Cc2cn(CC(O)CN3CCOCC3)nn2)[C@@H](C)C1 (some centres unmarked) [Compound 191] | < 100
27 | CCc1cc2c(s1)CCOC21CCN(Cc2ccc(C(=O)N[C@H](C)CO)nc2)CC1 [Compound 1046] | < 100
28 | C[C@H]1C[C@@]2(CCN1Cc1cnc(N3CCOCC3)nc1)OCCc1cc(Cl)sc12 [Compound 658] | < 100
29 | CCc1cc2c(s1)CCOC21CCN(Cc2cn(CC(=O)NCC(C)O)nn2)CC1 (centres unmarked) [Compound 1092] | 500 to 1000
30 | CCc1cc2c(s1)CCO[C@@]21CCN(Cc2cn(CC3(OCCO)CCC3)nn2)[C@@H](C)C1 [Compound 104] | 100 to 500
31 | CCc1cc2c(s1)CCO[C@@]21CCN(Cc2cn(CC3(OCCO)CCOCC3)nn2)[C@@H](C)C1 [Compound 87] | 100 to 500
32 | CCc1cc2c(s1)CCOC21CCN(Cc2cnn(CCS(=O)(=O)NC)c2)CC1 [Compound 1127] | < 100
33 | CCc1cc2c(s1)CCO[C@@]21CCN(Cc2cn(C(C)c3nnc4n3CCC4)nn2)[C@@H](C)C1 (some centres unmarked) [Compound 186] | 100 to 500
34 | CC(C)C1Cc2sc(Cl)cc2C2(CCN(Cc3cnn(C)c3)[C@@H](C)C2)O1 (some centres unmarked) [Compound 532] | 100 to 500
35 | C[C@H]1C[C@@]2(CCN1Cc1cnn(CC(O)CC(C)(O)C3CC3)c1)OCCc1c2sc(C(F)(F)F)c1CO (some centres unmarked) [Compound 938] | < 100
36 | C[C@H]1C[C@@]2(CCN1Cc1cccc(NS(C)(=O)=O)c1)OCCc1cc(Cl)sc12 [Compound 641] | 100 to 500
37 | C[C@H]1C[C@]2(CCN1Cc1cn(CCS(C)(=O)=O)nn1)OCCc1cc(Cl)sc12 [Compound 695, (2′S,7S)-2-chloro-2′-methyl-1′-[[1-(2-methylsulfonylethyl)triazol-4-yl]methyl]spiro[4,5-dihydrothieno[2,3-c]pyran-7,4′-piperidine]] | 500 to 1000
38 | C[C@H]1C[C@@]2(CCN1Cc1cnn(CCS(C)(=O)=O)c1)OCC(N1C(=O)c3ccccc3C1=O)c1cc(Cl)sc12 (stereo partly drawn) [Compound 853, 2-[(2′S, 7R)-2-chloro-2′-methyl-1′-[[1-(2-methylsulfonylethyl)pyrazol-4-yl]methyl]spiro[4,5-dihydrothieno[2,3-c]pyran-7,4′-piperidine]-4-yl]isoindoline-1,3-dione] | 100 to 500
39 | CCc1cc2c(s1)CCO[C@@]21CCN(Cc2cn([C@H]3CS(=O)(=O)C[C@H]3O)nn2)[C@@H](C)C1 [Compound 62] | < 100
40 | CCc1cc2c(s1)CCOC21CCN(Cc2cnn(CCS(=O)(=O)N(C)C)c2)CC1 [Compound 1131] | 100 to 500
41 | C[C@H]1C[C@@]2(CCN1Cc1cn(CCS(C)(=O)=O)nn1)OCCc1cc(C(F)(F)F)sc12 [Compound 870, (2′S, 7R)-2′-methyl-1′-[[1-(2-methylsulfonylethyl)triazol-4-yl]methyl]-2-(trifluoromethyl)spiro[4,5-dihydrothieno[2,3-c]pyran-7,4′-piperidine]] | < 100
42 | C[C@H]1C[C@@]2(CCN1CCCn1cccn1)OC[C@H](O)c1cc(Cl)sc12 [Compound 815] | 500 to 1000
43 | CCc1cc2c(s1)CCO[C@@]21CCN(Cc2cn(CS(C)(=O)=O)nn2)[C@@H](C)C1 [Compound 13, (2′S)-2-ethyl-2′-methyl-1′-[[1-(methylsulfonylmethyl)triazol-4-yl]methyl]spiro[6,7-dihydrothieno[3,2-c]pyran-4,4′-piperidine]] | < 100
44 | CCc1cc2c(s1)CCO[C@@]21CCN(CC2CN(C(=O)COC(C)(C)C)C2)[C@@H](C)C1 [Compound 442] | < 100
45 | CCc1cc2c(s1)CCO[C@@]21CCN(Cc2cnc(NCC(O)CO)nc2)[C@@H](C)C1 (some centres unmarked) [Compound 217] | < 100
46 | CCc1cc2c(s1)CCO[C@@]21CCN(C[C@H]2C[C@@H](NC(=O)Oc3ccc(OC)cc3)C2)[C@@H](C)C1 [Compound 379] | < 100
47 | CCc1cc2c(s1)CCOC21CCN(Cc2ccc(NS(=O)(=O)C3CC3)cc2)CC1 [Compound 1163] | 100 to 500
